From patent publication US6423732B1, “Synergistic combinations of cyproconazole” (Syngenta Participations AG, priority 1992, dated 2002) come the findings set out here.

Assay in all cases: Wood preservation test ES 84/113, pine sapwood, weight loss of wood samples
Common to all, as to assay type: cell-based

The test system of assay [1] is Coniophora puteana (cellar fungus). Particulars: substance alone. Here is the method: (§1) Determination of the Activity of the Cyproconazole in Combination with Dimethyldidecylammonium Chloride Against Wood-destroying Basidiomycetes
(§2) The active substances were tested in accordance with European Testing Standards ES 84 (1979) and 113 (1986). Treatment with the active substances prevents the wood from being destroyed. The effect of the treatment is quantified indirectly via the non-existing weight loss of the wood samples.
(§3) The wood sample used was pine sapwood, and the test fungi used were Coniophora puteana (cellar fungus), Poria plazenta, Gloeophyllum trabeum and Trametes (Coriolus) versicolor. Markedly smaller amounts of the combination according to the invention of cyproconazole (A: 2-(4-chlorophenyl)-3-cyclopropyl-3-methyl-1-(1H,1,2,4-triazol-1-yl)-butan-2-ol) and dimethyldidecylammonium chloride (B1) have the same result (0% weight loss) as cyproconazole or B1 alone. Comparably good results were also obtained when beech was used as the wood sample.

Another assay has as its system Gloeophyllum trabeum. Particulars: Gloephyllum, substance alone. Here is the method: as §1, §2, §3
In a further assay the test system is Poria plazenta. The note with it: substance alone. As for the experimental part:
as §1, §2, §3

The test system of assay [2] is Trametes (Coriolus) versicolor. Particulars: substance alone. As for the experimental part:
as §1, §2, §3

With `CC(C1CC1)C(O)(Cn1cncn1)c1ccc(Cl)cc1` (centres unmarked) [A], the “Amount (g/m^3) of active Substance at 0% Weight Loss” value is 247 g g/m^3 in assay [1], 247 g g/m^3 in the assay with Gloeophyllum trabeum, 243 g g/m^3 in the assay with Poria plazenta and 418 g g/m^3 in assay [2].
As to `CCCCCCCCCC[N+](C)(C)CCCCCCCCCC.[Cl-]` [B1, dimethyldidecylammonium chloride], the “Amount (g/m^3) of active Substance at 0% Weight Loss” value in assay [1] is recorded as 12,415 g g/m^3; in the assay with Gloeophyllum trabeum, 12,505 g g/m^3; in the assay with Poria plazenta it was 3,175 g g/m^3; in assay [2] it was 2,675 g g/m^3.
